In article PMC5917010, “Structural basis for GPR40 allosteric agonism and incretin stimulation” (Nature Communications, 2018):
“And” between values parts separate entries of the source, which are not always exact repeats. Equal entries are not always repeated.

Columns and labels:
GFP = test: cAMP accumulation assay, GFP control
Description: (§2) HEK293 cells transiently transfected with Promega’s cAMP response element (CRE/luc2P) and a GPR40 construct were plated (40K cells/well) into 96-well microtiter plates using Dulbecco’s Modified Eagle’s Medium (DMEM) supplemented with 10% FBS, 20 mM HEPES, pH 7.4, 100 U/mL Penicillin, 100 µg/mL Streptomycin, and 800 µg/mL Geneticin. Test compounds were serially diluted three-fold in 100% DMSO and immediately diluted in media. […] EC50 values were calculated using a four-parameter logistic curve fitting equation.

PPAR = PPAR binding and functional assays at multiple concentrations; settings: all PPAR binding and functional assays
Human GPR120 [1] = biological target: T1, Human GPR120 (Homo sapiens, UniProt Q5NUL3); test: Human GPR120 b-arrestin; format: cell-based; settings: Supplementary Table 1
T1 sequence (Q5NUL3 1-361): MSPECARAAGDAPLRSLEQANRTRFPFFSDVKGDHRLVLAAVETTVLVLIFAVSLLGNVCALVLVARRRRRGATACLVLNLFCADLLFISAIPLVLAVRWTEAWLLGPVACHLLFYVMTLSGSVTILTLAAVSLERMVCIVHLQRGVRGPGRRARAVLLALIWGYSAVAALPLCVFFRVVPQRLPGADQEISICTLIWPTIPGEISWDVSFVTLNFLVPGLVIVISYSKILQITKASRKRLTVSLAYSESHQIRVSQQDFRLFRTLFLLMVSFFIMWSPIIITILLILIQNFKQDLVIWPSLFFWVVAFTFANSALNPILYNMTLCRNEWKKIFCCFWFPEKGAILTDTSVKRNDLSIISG

Rat hepatocyte clearance = format: in vitro ADME; settings: hepatocytes
[2] = Human hepatocyte clearance; format: in vitro ADME; settings: hepatocytes
Rat GPR40 = Rat GPR40 (Rattus norvegicus, UniProt Q8K3T4); test: Rat GPR40 b-arrestin; format: cell-based
Sequence of Rat GPR40 (Q8K3T4 whole entry): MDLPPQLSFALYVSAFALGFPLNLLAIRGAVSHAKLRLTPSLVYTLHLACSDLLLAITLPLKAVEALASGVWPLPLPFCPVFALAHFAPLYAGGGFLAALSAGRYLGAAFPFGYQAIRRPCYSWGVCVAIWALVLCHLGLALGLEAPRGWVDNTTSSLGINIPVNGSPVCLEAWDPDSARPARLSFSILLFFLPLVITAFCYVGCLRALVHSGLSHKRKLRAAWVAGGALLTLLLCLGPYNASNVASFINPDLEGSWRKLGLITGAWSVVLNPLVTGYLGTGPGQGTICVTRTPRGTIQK

Mouse GPR120 = biological target: T2, Mouse GPR120 (Mus musculus, UniProt Q7TMA4); test: Mouse GPR120 b-arrestin; format: cell-based; settings: Supplementary Table 1
T2 sequence (Q7TMA4 1-361): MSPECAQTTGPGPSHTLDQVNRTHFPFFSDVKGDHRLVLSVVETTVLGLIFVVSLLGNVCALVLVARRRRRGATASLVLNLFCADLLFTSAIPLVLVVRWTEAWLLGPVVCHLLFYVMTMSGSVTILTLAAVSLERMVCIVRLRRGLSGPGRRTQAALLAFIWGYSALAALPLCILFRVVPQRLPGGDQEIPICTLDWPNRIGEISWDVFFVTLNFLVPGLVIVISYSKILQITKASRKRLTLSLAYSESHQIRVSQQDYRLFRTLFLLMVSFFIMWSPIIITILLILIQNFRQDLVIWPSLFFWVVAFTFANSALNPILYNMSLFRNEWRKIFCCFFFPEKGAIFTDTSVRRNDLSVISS

hNav1.7 = hNav1.7 (Homo sapiens, UniProt Q15858); test: hNav1.7 binding; settings: read-out: hNav1.7 binding Rel IC50
Sequence of hNav1.7 (Q15858 whole entry): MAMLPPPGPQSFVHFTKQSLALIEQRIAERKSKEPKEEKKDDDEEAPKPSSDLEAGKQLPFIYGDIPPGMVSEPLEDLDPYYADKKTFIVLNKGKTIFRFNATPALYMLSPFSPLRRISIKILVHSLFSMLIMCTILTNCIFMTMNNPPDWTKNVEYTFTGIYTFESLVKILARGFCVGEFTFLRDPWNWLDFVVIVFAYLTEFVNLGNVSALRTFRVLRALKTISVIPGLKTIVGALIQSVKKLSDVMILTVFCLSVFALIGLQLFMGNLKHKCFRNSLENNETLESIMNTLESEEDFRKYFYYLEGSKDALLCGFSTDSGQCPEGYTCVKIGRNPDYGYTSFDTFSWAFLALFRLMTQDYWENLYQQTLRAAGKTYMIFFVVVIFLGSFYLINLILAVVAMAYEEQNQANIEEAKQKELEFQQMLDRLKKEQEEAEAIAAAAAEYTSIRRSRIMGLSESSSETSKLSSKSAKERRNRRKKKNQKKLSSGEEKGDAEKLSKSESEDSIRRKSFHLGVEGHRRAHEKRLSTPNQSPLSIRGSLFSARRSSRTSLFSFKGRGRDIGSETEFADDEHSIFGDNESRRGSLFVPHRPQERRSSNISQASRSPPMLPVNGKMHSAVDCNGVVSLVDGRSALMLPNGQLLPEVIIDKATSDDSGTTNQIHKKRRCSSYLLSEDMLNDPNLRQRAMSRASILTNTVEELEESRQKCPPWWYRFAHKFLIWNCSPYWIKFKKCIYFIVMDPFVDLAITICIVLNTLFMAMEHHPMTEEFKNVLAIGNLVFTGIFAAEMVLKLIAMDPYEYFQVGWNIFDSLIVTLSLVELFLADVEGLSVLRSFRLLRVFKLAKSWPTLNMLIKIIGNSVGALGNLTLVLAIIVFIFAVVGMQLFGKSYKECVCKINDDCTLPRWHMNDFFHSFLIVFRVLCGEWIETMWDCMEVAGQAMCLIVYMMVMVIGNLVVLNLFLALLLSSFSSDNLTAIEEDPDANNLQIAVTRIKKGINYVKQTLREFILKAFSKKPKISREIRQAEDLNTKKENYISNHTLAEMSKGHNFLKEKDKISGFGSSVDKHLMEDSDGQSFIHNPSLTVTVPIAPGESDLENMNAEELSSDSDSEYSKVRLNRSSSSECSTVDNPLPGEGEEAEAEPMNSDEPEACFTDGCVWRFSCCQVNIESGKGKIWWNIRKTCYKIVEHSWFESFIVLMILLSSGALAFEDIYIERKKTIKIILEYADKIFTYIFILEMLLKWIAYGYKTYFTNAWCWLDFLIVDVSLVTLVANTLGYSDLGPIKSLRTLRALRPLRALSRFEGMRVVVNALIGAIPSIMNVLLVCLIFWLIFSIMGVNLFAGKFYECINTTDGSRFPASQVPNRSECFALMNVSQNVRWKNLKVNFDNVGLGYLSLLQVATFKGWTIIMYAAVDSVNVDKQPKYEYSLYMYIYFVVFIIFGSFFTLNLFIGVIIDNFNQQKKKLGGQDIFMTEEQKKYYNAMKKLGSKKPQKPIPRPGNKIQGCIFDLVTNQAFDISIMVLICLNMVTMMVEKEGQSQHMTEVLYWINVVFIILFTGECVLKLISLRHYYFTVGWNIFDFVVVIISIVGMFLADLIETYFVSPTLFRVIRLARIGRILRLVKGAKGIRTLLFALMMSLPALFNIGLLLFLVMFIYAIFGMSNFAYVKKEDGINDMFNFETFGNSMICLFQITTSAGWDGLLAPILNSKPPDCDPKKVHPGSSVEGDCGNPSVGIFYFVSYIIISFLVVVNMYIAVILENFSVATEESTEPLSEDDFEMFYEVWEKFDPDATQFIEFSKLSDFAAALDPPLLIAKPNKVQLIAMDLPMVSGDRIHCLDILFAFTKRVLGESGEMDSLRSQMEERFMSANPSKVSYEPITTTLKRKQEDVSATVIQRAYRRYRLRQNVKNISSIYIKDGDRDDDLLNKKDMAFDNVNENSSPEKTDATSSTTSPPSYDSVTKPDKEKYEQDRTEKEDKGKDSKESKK

hM1 = hM1 (Homo sapiens, UniProt P11229); test: hM1 binding; settings: read-out: hM1 binding Rel IC50
Sequence of hM1 (P11229 whole entry): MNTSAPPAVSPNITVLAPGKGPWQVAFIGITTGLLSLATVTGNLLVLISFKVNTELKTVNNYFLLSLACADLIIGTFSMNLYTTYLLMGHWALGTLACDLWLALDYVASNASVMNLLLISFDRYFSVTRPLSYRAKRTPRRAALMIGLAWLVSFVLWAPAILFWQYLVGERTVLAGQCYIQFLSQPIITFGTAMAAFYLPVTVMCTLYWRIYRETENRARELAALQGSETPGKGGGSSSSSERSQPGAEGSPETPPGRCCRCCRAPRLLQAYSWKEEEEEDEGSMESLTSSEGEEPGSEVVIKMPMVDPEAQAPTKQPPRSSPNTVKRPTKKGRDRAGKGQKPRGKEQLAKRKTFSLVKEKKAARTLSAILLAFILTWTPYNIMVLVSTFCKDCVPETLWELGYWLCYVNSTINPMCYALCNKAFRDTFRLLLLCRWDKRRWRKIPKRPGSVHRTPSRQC

GPR40 L112A = GPR40 L112A (Homo sapiens, UniProt O14842, L112A); test: cAMP accumulation assay, L112A mutant
Sequence of GPR40 L112A (O14842 whole entry L112A): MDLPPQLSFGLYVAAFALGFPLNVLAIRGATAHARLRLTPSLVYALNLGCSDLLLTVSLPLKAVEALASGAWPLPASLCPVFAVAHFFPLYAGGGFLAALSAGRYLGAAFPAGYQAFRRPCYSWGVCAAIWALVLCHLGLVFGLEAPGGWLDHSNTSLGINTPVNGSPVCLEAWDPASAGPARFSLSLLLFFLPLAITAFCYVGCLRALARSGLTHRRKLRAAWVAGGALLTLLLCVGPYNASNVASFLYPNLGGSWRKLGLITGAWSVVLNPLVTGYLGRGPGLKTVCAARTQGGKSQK
Description: as §2

Human GPR120 [3] = biological target: T1, Human GPR120; test: Human GPR120 binding; settings: Supplementary Table 1
WT GPR40 = WT GPR40 (Homo sapiens, UniProt O14842); test: cAMP accumulation assay (CRE/luc2P), wild type GPR40
Sequence of WT GPR40 (O14842 whole entry): as the sequence (O14842 whole entry L112A) above, with A112L counted along it
Description: as §2

GPR120 KO mice = test: OGTT in GPR120 KO mice; format: in vivo, mouse; settings: 5 mg/kg
Description: (§1) Eight to thirteen week old male C57BL/6 or KO mice were used. The day before the study, at 1600 hours, animals were transferred into clean cages and food was removed. The following morning (~0800 hours), mice were randomized by block randomization to treatment groups (N = 5–7 per group) so each group had similar mean and standard deviation of body weight and blood glucose. […] Animals were dosed with vehicle (0.5% MC/0.25% Tween-80) or the test article by oral gavage. Group allocations were not blinded from the experimenters who collected the data. After 60 min compound treatment animals were then given an oral gavage of glucose (2 g/kg). At 0, 15, 30, 60, and 120 min post oral glucose, two glucose readings via glucometers were obtained. The average of two glucose readings was reported at each time point. Data were expressed as mean±standard error (s.e.m.). Blood glucose values were analyzed using ANOVA with repeated measures. Cook’s distance was also calculated from linear regression. All animals were included in the analysis with their individual averaged Cook’s distance < 1. Dunnett’s comparison was performed at each time point by R program. Significance is denoted at p < 0.05.

Human GPR120 [4] = biological target: T1, Human GPR120; test: Human GPR120 Calcium (FLIPR); format: cell-based; settings: Supplementary Table 1
human GPR40 = biological target: T3, human GPR40 (Homo sapiens, UniProt O14842); test: Ca2+ mobilization assay (FLIPR), HEK293 cells stably overexpressing GPR40; format: cell-based; settings: for Ca2+ mobilization (FLIPR) Top: relative to 500 µM linoleic acid; for agonist type in Ca2+ mobilization assay: relative to 500 µM of the natural ligand, linoleic acid
T3 construct: HEK293 cells stably overexpressing full length human GPR40; expressed in transfected cells
T3 sequence (O14842 whole entry): as the sequence (O14842 whole entry L112A) above, with A112L counted along it
Description: HEK293 cells stably overexpressing full length human GPR40 were plated (50K cells/well) into 96-well microtiter plates using Dulbecco’s Modified Eagle’s Medium (DMEM) supplemented with 10% certified fetal bovine serum (FBS), 20 mM HEPES, pH 7.4, 1 mM Sodium Pyruvate, 100 U/mL Penicillin, 100 µg/mL Streptomycin, and 800 µg/mL Geneticin. The cells were incubated overnight at 37 °C and 5% CO2. Calcium 4 dye (Molecular Devices) diluted in assay buffer was added (100 µL per well) to the cell plates, followed by a 1 h incubation in the dark at 25 °C. Test compounds were serially diluted three-fold in 100% DMSO and immediately diluted in assay buffer. […] Receptor activation was immediately measured as an increase in intracellular calcium using the FLIPR® over 3 min. To determine agonist responses, relative fluorescence units (RFUs) over 60 reads were calculated per well and used to calculate percent stimulation relative to 500 µM of the natural ligand, linoleic acid, response. EC50 values were calculated by plotting test compound concentration vs. percent stimulation using a 4-parameter logistic curve fitting equation.

wild type C57BL/6 mice = test: Oral glucose tolerance test (OGTT) in wild type C57BL/6 mice; format: in vivo, mouse
Description: as §1

COc1ccc(C(=O)N(CC(C)(C)C)c2cccc(C)n2)c(N2CCC(c3cc4ccc([C@@H](CC(=O)O)C5CC5)cc4o3)CC2)c1 [compound 1]
EC50 (GFP; Homo sapiens, read-out: cAMP accumulation EC50, GFP): > 30 µM | PPAR binding or functional activities (PPAR): lack of significant PPAR binding or functional activities | EC50 (Human GPR120 [1]): > 100 µM | recovery (Rat hepatocyte clearance; no ABT, read-out: Rat Hepatocyte Clearance no ABT % Recovery): 103% | hepatocyte CLint (Rat hepatocyte clearance; no ABT, read-out: Rat Hepatocyte Clearance no ABT Intrinsic Clearance): 12.2 µL/min/1e6 cells | recovery (Rat hepatocyte clearance; with ABT (concentration not stated), read-out: Rat Hepatocyte Clearance ABT % Recovery): 92.8% | hepatocyte CLint (Rat hepatocyte clearance; with ABT, read-out: Rat Hepatocyte Clearance ABT Intrinsic Clearance): 3 µL/min/1e6 cells | recovery ([2]; no ABT, read-out: Human Hepatocyte Clearance no ABT % Recovery): 103% | hepatocyte CLint ([2]; no ABT, read-out: Human Hepatocyte Clearance no ABT Intrinsic Clearance): 8.8 µL/min/1e6 cells | recovery ([2]; with ABT (concentration not stated), read-out: Human Hepatocyte Clearance ABT % Recovery): 92.8% | hepatocyte CLint ([2]; with ABT, read-out: Human Hepatocyte Clearance ABT Intrinsic Clearance): < 1.8 µL/min/1e6 cells | EC50 (Rat GPR40): 2.1 nM | Emax (Rat GPR40): 163% | EC50 (Mouse GPR120): > 50 µM | IC50 (hNav1.7): > 30 µM | IC50 (hM1): > 10 µM | EC50 (GPR40 L112A): > 30 µM | Ki (Human GPR120 [3]): > 100 µM | EC50 (WT GPR40; cAMP accumulation EC50, GPR40-Gαs signaling, stably transfected cells, Fig. 1c, n = 6): ~126 nM | EC50 (WT GPR40; cAMP accumulation EC50, WT, Fig. 6c-e, n = 3): 210 nM | glucose excursion in OGTT, GPR120 KO (GPR120 KO mice): significant decrease in glucose excursion | EC50 (Human GPR120 [4]): > 50 µM | EC50 (human GPR40; GPR40-Gαq signaling, stably transfected cells, no TAK-875): 72 nM and ~72 nM | cooperativity composite factor (Log αβ) (human GPR40; compound 1 with TAK-875, operational model, slope constrained to 1): 1.46 | efficacy modulation cooperativity factor (β) (human GPR40; cooperativity between TAK-875 and compound 1): 14 | average α-factor (human GPR40; cooperativity between TAK-875 and compound 1, averages from Figs. 1a and 8a): 2.1 | Ca2+ mobilization (FLIPR) Top (human GPR40): 136.3% | agonist type in Ca2+ mobilization assay (human GPR40): full agonist | glucose excursion in OGTT (wild type C57BL/6 mice; various oral doses): Dose dependent decreases in glucose excursion

Cc1cc(OCCCS(C)(=O)=O)cc(C)c1-c1cccc(COc2ccc3c(c2)OC[C@H]3CC(=O)O)c1 [TAK-875]
cAMP accumulation EC50, GFP (GFP; GFP control, Fig. 6c,d): no fit | EC50 (Human GPR120 [1]): > 100 µM | EC50 (Rat GPR40): 36 nM | EC50 (Mouse GPR120): > 50 µM | Ki (Human GPR120 [3]): > 100 µM | EC50 (Human GPR120 [4]): > 50 µM | Ca2+ mobilization (FLIPR) Top (human GPR40): 81.67% | agonist type in Ca2+ mobilization assay (human GPR40): partial agonist | glucose in OGTT (wild type C57BL/6 mice; 30 and 60 mg kg-1): Decreases in glucose
